Experimental findings from PubChem BioAssay (NCI) are described below.

Among the test systems are MOLT-4 leukemia; ACHN renal; MALME-3M melanoma; A498 renal; OVCAR-5 ovarian; SK-MEL-28 melanoma; U251 CNS; MDA-N.
Experiment in all cases: growth of human tumour cells (NCI), 48 h

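All cell lines were grown in 96-well plates and treated with compound for 48 hours. GI50 marks 50% less growth. TGI marks complete inhibition of growth.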

In the case of `CC(=O)Oc1cccc2c1C(=O)CCCC2`, the TGI with MOLT-4 leukemia, in the test with ACHN renal, in the test on MALME-3M melanoma, in the test with A498 renal, in the test on OVCAR-5 ovarian and with SK-MEL-28 melanoma was > 100 µM throughout. In addition, in the test on U251 CNS, the TGI was > 100 µM.
Take `Cc1cc(C)nc(NS(=O)(=O)c2ccc(NC(=O)c3ccc4nc5ccccc5c(Nc5ccc(S(N)(=O)=O)cc5)c4c3)cc2)n1`: the TGI in the test with MOLT-4 leukemia, in the test on ACHN renal, in the test with MALME-3M melanoma, in the test on OVCAR-5 ovarian, with SK-MEL-28 melanoma and in the test with U251 CNS was > 100 µM each time.
In the case of `Nn1c(Nc2ccc(S(=O)(=O)Nc3ncccn3)cc2)nnc(/C=C/c2c(O)ccc3ccccc23)c1=O`, the TGI in the test on MOLT-4 leukemia is > 100 µM; in the test with MDA-N, > 100 µM; in the test on ACHN renal, 67.3 µM; with MALME-3M melanoma it was 75.8 µM; with A498 renal, 72.4 µM; in the test on OVCAR-5 ovarian, 91.9 µM. The TGI in the test on U251 CNS is > 100 µM.
Take `COc1ccc(CN2C(=O)/C(=C\c3cc(OC)c(OC)c(OC)c3)c3ccccc32)cc1`: the GI50 in the test on ACHN renal is 2.06 µM; with MALME-3M melanoma it was 0.562 µM; with A498 renal it was 2.79 µM; with OVCAR-5 ovarian it was 2.71 µM; in the test with SK-MEL-28 melanoma it was 1.82 µM; in the test with U251 CNS, 1.56 µM. Moreover, the TGI in the test on ACHN renal worked out at 4.41 µM; with MALME-3M melanoma, 3.3 µM; in the test on A498 renal, 14.3 µM; in the test with OVCAR-5 ovarian, 6.48 µM; in the test with SK-MEL-28 melanoma, 3.74 µM; with U251 CNS, 2.98 µM.
With `NC(=O)C(=Cn1c(=S)[nH]c2ccc([N+](=O)[O-])cc21)C(N)=O`, the TGI in the test on MOLT-4 leukemia, in the test on MDA-N, in the test on ACHN renal, in the test on A498 renal, with OVCAR-5 ovarian and in the test on SK-MEL-28 melanoma was > 100 µM in each case. Besides, the TGI with U251 CNS is > 100 µM.
`COc1cccc(Nc2nc(-c3cccs3)nc3cc(OC)c(OC)cc23)c1`: the TGI in the test with MOLT-4 leukemia is > 100 µM; with ACHN renal, 50.3 µM; in the test with MALME-3M melanoma, > 100 µM; with A498 renal, 48.5 µM; with OVCAR-5 ovarian it was > 100 µM; with SK-MEL-28 melanoma, > 100 µM. The compound also returned a TGI in the test with U251 CNS of 61.8 µM.
In the case of `S=C(N/N=C(/c1ccccc1)c1ccccn1)N(Cc1ccccn1)Cc1ccccn1`, the TGI in the test on MOLT-4 leukemia is 16.1 µM; in the test on MDA-N, 7.62 µM; in the test on ACHN renal it was 0.74 µM; in the test on MALME-3M melanoma, 2.45 µM; in the test with OVCAR-5 ovarian, 3.37 µM; with SK-MEL-28 melanoma, 5.45 µM.
`Nc1nccc(-c2c[nH]c3cc(Br)ccc23)n1`: the TGI in the test on MOLT-4 leukemia is 61.8 µM; in the test on MDA-N, 45.8 µM; with ACHN renal, 66 µM; with MALME-3M melanoma, > 100 µM; in the test on OVCAR-5 ovarian, 49 µM; in the test on SK-MEL-28 melanoma, 86.8 µM. The TGI with U251 CNS was > 100 µM.
As for `CCC(=O)NC(Nc1cc(C)on1)(C(F)(F)F)C(F)(F)F`, the TGI with MOLT-4 leukemia, in the test on ACHN renal, in the test on MALME-3M melanoma, with A498 renal, with OVCAR-5 ovarian and in the test on SK-MEL-28 melanoma was > 100 µM throughout. Besides, the TGI with U251 CNS is > 100 µM.
For the compound `Nc1nc(-c2ccccc2)nc2oc(-c3cccs3)nc12`, the TGI with MOLT-4 leukemia, in the test with ACHN renal, in the test on A498 renal, in the test with OVCAR-5 ovarian, with SK-MEL-28 melanoma and in the test with U251 CNS was > 100 µM throughout.
For the compound `COc1ccc(-n2c(C)nc3ccc(NC(=S)Nc4ccccc4)cc3c2=O)cc1`, the TGI in the test with MOLT-4 leukemia is 99.8 µM; in the test on ACHN renal it was > 100 µM; in the test on MALME-3M melanoma, > 100 µM; in the test with A498 renal, > 100 µM; in the test on OVCAR-5 ovarian it was > 100 µM; in the test with SK-MEL-28 melanoma, > 100 µM. For the same compound, the TGI in the test with U251 CNS was > 100 µM.
As to `O=C(Cc1ccc(O)c(O)c1)NCc1c[nH]c2ccccc12`, the TGI in the test with MOLT-4 leukemia was > 100 µM; in the test on MALME-3M melanoma, 76.5 µM; with A498 renal, > 100 µM; with OVCAR-5 ovarian, > 100 µM; in the test with SK-MEL-28 melanoma, > 100 µM.
On to `Oc1ccccc1CNCc1nc2ccccc2[nH]1`, for which the TGI in the test on MOLT-4 leukemia was > 100 µM; in the test with MDA-N, > 100 µM; with ACHN renal it was 57.6 µM; in the test on A498 renal, > 100 µM; in the test with OVCAR-5 ovarian, > 100 µM; in the test on SK-MEL-28 melanoma, > 100 µM. In the test on U251 CNS, the TGI was > 100 µM.
With `O=C(OCc1ccccc1)N1CCNCCN(C(=O)OCc2ccccc2)CCNCC1`, the TGI in the test on MOLT-4 leukemia is 50.4 µM; in the test on MDA-N, 31 µM; in the test on ACHN renal it was > 100 µM; in the test with A498 renal, > 100 µM; with OVCAR-5 ovarian it was > 100 µM; in the test with SK-MEL-28 melanoma, 45.3 µM. In the test with U251 CNS, this compound registered a TGI of 61 µM.
With `O=C1c2cc3c(cc2-c2c1c1ccc(F)cc1c(=O)n2C[C@H](O)[C@@H](O)[C@H](O)CO)OCO3`, the GI50 is 0.0334 µM in the test on MOLT-4 leukemia; 0.185 µM with MALME-3M melanoma; 0.12 µM in the test on A498 renal; 0.222 µM in the test on OVCAR-5 ovarian; 0.195 µM in the test with SK-MEL-28 melanoma. The TGI stood at 0.426 µM in the test with MOLT-4 leukemia; 0.565 µM in the test with MALME-3M melanoma; 0.262 µM in the test on A498 renal; 0.782 µM with OVCAR-5 ovarian; 0.765 µM with SK-MEL-28 melanoma.
For the compound `CC(=O)N1C(C(=O)NC2CCCCC2)CSC1c1ccccc1` (centres undefined), the TGI with MOLT-4 leukemia, in the test on MDA-N, in the test with ACHN renal, with MALME-3M melanoma, in the test on A498 renal and in the test on OVCAR-5 ovarian was > 100 µM in each case. In the test on U251 CNS, the TGI is > 100 µM.
Regarding `COP(=O)(OC)C1=c2c(C)noc2=C2C=COC2C1=O` (centres undefined), the TGI in the test with MOLT-4 leukemia, in the test with MDA-N, in the test on ACHN renal, with MALME-3M melanoma, in the test with A498 renal and in the test with OVCAR-5 ovarian was > 100 µM throughout. Also, the TGI in the test with U251 CNS is > 100 µM.
For `CC1(C(=O)O)CCC2(C)CCC3(C)C(=CC(=O)C4C5(C)CCC(O)C(C)(C)C5CCC43C)C2C1` (centres undefined), the TGI is > 100 µM in the test with MOLT-4 leukemia; > 100 µM with MDA-N; 42.2 µM in the test on ACHN renal; > 100 µM with MALME-3M melanoma; 82.9 µM in the test on OVCAR-5 ovarian; 52.4 µM in the test on SK-MEL-28 melanoma. Also, the TGI in the test with U251 CNS was > 100 µM.
